Assay results: PubChem BioAssay AID1919004 (Molecular Pharmacology Branch, DTP, NCI, 2023)

Test system: 883617-216-R-J1-PDC complex spheroids, growth, % test/control
Experiment: Anticancer human tumor 883617-216-R-J1-PDC patient-derived bladder carcinoma cell line growth inhibition [AhR]
Settings: for IC50: curve of first compound; for viability, T/C: stronger effect = lower value; active means viability on the fitted dose curve at most 10% of control; inactive means the rest
Source text: Multicellular complex tumor spheroid response to aryl hydrocarbon receptor antagonists in combination with a variety of drugs and investigational agents in selected tumor cell lines
The current study was undertaken to assess response to aryl hydrocarbon receptor antagonists in combination with standard-of-care drugs and investigational agents in solid tumor complex spheroid models. Complex spheroids include a stromal component modeled by human endothelial cells (HUVEC) and fibroblasts modeled by human mesenchymal stem cells (MSCs). The concentration ranges selected for each drug and investigational agent were based upon clinically achievable concentrations if the clinical Cmax of the agent was known.
Compounds. The drugs and investigational agents: BAY 2416964 (NSC825713), GNF351 (NSC835774), CH-223191 (NSC835775), CPI-455 (NSC825282), aza-TdCyd (NSC777586), decitabine (NSC127716), belinostat (NSC758774), entinostat (NSC756642), pevonedistat (NSC761192), tazemetostat (NSC777109), talazoparib (NSC765396), olaparib (NSC753686), selinexor (NSC780203), nedisertib (M3814, NSC802822), bortezomib (NSC756655), venetoclax (NSC766270), doxorubicin (NSC123127), elimusertib (BAY189344, NSC800525), ceralasertib (AZD6738, NSC777638), TAK-243 (NSC785004), alisertib (NSC759677), etoposide (NSC141540), topotecan (NSC609699), eribulin (NSC707389), gemcitabine (NSC613327), carboplatin (NSC241240), cisplatin (NSC119875), and SN-38 (NSC673596) were obtained from the National Cancer Institute (NCI) Developmental Therapeutics Program Chemical Repository (32). The FDA-approved anticancer drug set is available from the Developmental Therapeutics Program at https://dtp.cancer.gov/organization/dscb/obtaining/available plates.htm. […] The stock solutions were prepared in dimethyl sulfoxide (DMSO, Sigma-Aldrich, St. Louis, MO, cat. D2650), except for the platinum compounds which were prepared in saline (Quality Biological, Gaithersburg, MD, cat. 114-055-101), at 800-fold the tested concentration and stored at -70 degrees C prior to their use. All drugs and investigational agents were tested over a range starting from a high concentration at or near the clinical Cmax and decreasing in half-log increments. If the clinical Cmax for an agent had not been determined, the highest concentration tested was 10 microM (Table 1).
Cell Culture. All cells were maintained in an incubator at 37 degrees C and 5% CO2 with 95% humidity. The PDC lines were cultured according to standard operating procedures established by the NCI PDMR (https://pdmr.cancer.gov). Briefly, all PDCs were thawed and cultured in Matrigel-coated flasks prepared with a working solution of 1X Ham's F-12 nutrient mix, without supplementation (Invitrogen, Waltham, MA, cat. 11765054), 100 U/mL penicillin-streptomycin (Invitrogen, cat. 15140122), and 2.5% Matrigel (Corning Inc., Corning, NY, cat. 354248) for the first three passages. All PDCs were cultured in complete DMEM/F-12 media containing advanced DMEM/F-12 (Invitrogen, cat. 12634028), 4.9% defined fetal bovine serum, heat inactivated (HyClone Laboratories Inc., Logan, UT, cat. SH30070.03HI), 389 ng/mL hydrocortisone (Sigma-Aldrich, cat. H4001), 9.7 ng/mL human EGF recombinant protein (Invitrogen, cat. PHG0313), 23.4 microg/mL adenine (Sigma-Aldrich, cat. A2786), 97.3 U/mL penicillin-streptomycin (Invitrogen, cat. 15140122), 1.9 mM L-glutamine (Invitrogen, cat. 25030081), and 9.7 microM Y-27632 dihydrochloride (Tocris Bioscience, Bristol, United Kingdom, cat. 1254). The PDCs were cultured in complete DMEM/F12 media without 10 microM Y-27632 dihydrochloride for at least two passages prior to the screen. The established cell lines NCI-H1341 and […] were cultured in DMEM/F-12, HEPES (Invitrogen, cat. 11330032), 5% defined fetal bovine serum (HyClone Laboratories Inc., cat. SH30070.03), ITS premix universal culture supplement [insulin (5 microg/mL), transferrin (5 microg/mL), and selenious acid (5 ng/mL)] […]
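Further: exposure lasted 7 days after dosing on day 3 of spheroid growth.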

CC(C)CC(NC(=O)C(Cc1ccccc1)NC(=O)c1cnccn1)B(O)O (stereo not given) + CC(CO)NC(=O)c1cc(-c2ccc(Cl)cc2)nn(-c2cnn(C)c2)c1=O
active: viability, T/C (second compound 0.1 µM, first compound 0.00949 µM) 2.11% | viability, T/C (second compound 0.1 µM, first compound 0.03 µM) 2.02% | viability, T/C (second compound 0.1 µM, first compound 0.0949 µM) 1.92% | viability, T/C (second compound 0.1 µM, first compound 0.3 µM) 3.28% | viability, T/C (second compound 0.316 µM, first compound 0.00949 µM) 2.66% | viability, T/C (second compound 0.316 µM, first compound 0.03 µM) 3.45% | viability, T/C (second compound 0.316 µM, first compound 0.0949 µM) 3.14% | viability, T/C (second compound 0.316 µM, first compound 0.3 µM) 2.44% | viability, T/C (second compound 1 µM, first compound 0.00949 µM) 1.76% | viability, T/C (second compound 1 µM, first compound 0.03 µM) 2.42% | viability, T/C (second compound 1 µM, first compound 0.0949 µM) 1.86% | viability, T/C (second compound 1 µM, first compound 0.3 µM) 3.98% | viability, T/C (second compound 3.16 µM, first compound 0.00949 µM) 3.01% | viability, T/C (second compound 3.16 µM, first compound 0.03 µM) 2.25% | viability, T/C (second compound 3.16 µM, first compound 0.0949 µM) 2.47% | viability, T/C (second compound 3.16 µM, first compound 0.3 µM) 1.67% | viability, T/C (second compound 10 µM, first compound 0.00949 µM) 1.69% | viability, T/C (second compound 10 µM, first compound 0.03 µM) 2.43% | viability, T/C (second compound 10 µM, first compound 0.0949 µM) 2.25% | viability, T/C (second compound 10 µM, first compound 0.3 µM) 1.87%
0.00221 µM: IC50 (second compound 1 µM)
0.00186 µM: IC50 (second compound 0.1 µM)
0.0022 µM: IC50 (second compound 0.316 µM)
0.00159 µM: IC50 (second compound 3.16 µM)
0.00199 µM: IC50 (second compound 10 µM)
inactive: viability, T/C (second compound 0.1 µM, first compound 0.000949 µM) 106% | viability, T/C (second compound 0.1 µM, first compound 0.003 µM) 10.4% | viability, T/C (second compound 0.316 µM, first compound 0.000949 µM) 123% | viability, T/C (second compound 0.316 µM, first compound 0.003 µM) 22.9% | viability, T/C (second compound 1 µM, first compound 0.000949 µM) 123% | viability, T/C (second compound 1 µM, first compound 0.003 µM) 23.5% | viability, T/C (second compound 3.16 µM, first compound 0.000949 µM) 80.2% | viability, T/C (second compound 3.16 µM, first compound 0.003 µM) 13.3% | viability, T/C (second compound 10 µM, first compound 0.000949 µM) 122% | viability, T/C (second compound 10 µM, first compound 0.003 µM) 10.3%

Nc1ccccc1NC(=O)c1ccc(CNC(=O)OCc2cccnc2)cc1 + CC(CO)NC(=O)c1cc(-c2ccc(Cl)cc2)nn(-c2cnn(C)c2)c1=O
inactive: viability, T/C (second compound 0.1 µM, first compound 0.0316 µM) 79.3% | viability, T/C (second compound 0.1 µM, first compound 0.1 µM) 101% | viability, T/C (second compound 0.1 µM, first compound 0.316 µM) 90.8% | viability, T/C (second compound 0.1 µM, first compound 1 µM) 78.8% | viability, T/C (second compound 0.1 µM, first compound 3.16 µM) 48.2% | viability, T/C (second compound 0.1 µM, first compound 10 µM) 20.5% | viability, T/C (second compound 0.316 µM, first compound 0.0316 µM) 76.8% | viability, T/C (second compound 0.316 µM, first compound 0.1 µM) 86.9% | viability, T/C (second compound 0.316 µM, first compound 0.316 µM) 113% | viability, T/C (second compound 0.316 µM, first compound 1 µM) 83% | viability, T/C (second compound 0.316 µM, first compound 3.16 µM) 68.3% | viability, T/C (second compound 0.316 µM, first compound 10 µM) 16.8% | viability, T/C (second compound 1 µM, first compound 0.0316 µM) 92.8% | viability, T/C (second compound 1 µM, first compound 0.1 µM) 87.2% | viability, T/C (second compound 1 µM, first compound 0.316 µM) 110% | viability, T/C (second compound 1 µM, first compound 1 µM) 97.5% | viability, T/C (second compound 1 µM, first compound 3.16 µM) 51.4% | viability, T/C (second compound 1 µM, first compound 10 µM) 18.7% | viability, T/C (second compound 3.16 µM, first compound 0.0316 µM) 73.6% | viability, T/C (second compound 3.16 µM, first compound 0.1 µM) 66.8% | viability, T/C (second compound 3.16 µM, first compound 0.316 µM) 88% | viability, T/C (second compound 3.16 µM, first compound 1 µM) 105% | viability, T/C (second compound 3.16 µM, first compound 3.16 µM) 61.2% | viability, T/C (second compound 3.16 µM, first compound 10 µM) 21.8% | viability, T/C (second compound 10 µM, first compound 0.0316 µM) 110% | viability, T/C (second compound 10 µM, first compound 0.1 µM) 114% | viability, T/C (second compound 10 µM, first compound 0.316 µM) 104% | viability, T/C (second compound 10 µM, first compound 1 µM) 84.1% | viability, T/C (second compound 10 µM, first compound 3.16 µM) 61.1%
2.92 µM: IC50 (second compound 0.1 µM)
active: viability, T/C (second compound 10 µM, first compound 10 µM) 8.65%
4.38 µM: IC50 (second compound 3.16 µM)
3.32 µM: IC50 (second compound 1 µM)
3.9 µM: IC50 (second compound 10 µM)
4.73 µM: IC50 (second compound 0.316 µM)
